Series [1] deals with tumor cell lines. In words: Tumor clonogenic assay, overall. It is filed as cell-based. The text has this:
For the IN VITRO test, we chose a tumor clonogenic assay which measures the ability of tumoral cells to form colonies (multicellular growth units) as a result of cell division in semisolid agar support (2,3). A more elaborate version of this fundamental assay, the soft agar colony formation disk diffusion assay was used. This assay defines the relative activity of one particular drug versus a tumoral cell line type. The effect of the test drug against tumoral cells could be measured by its inhibitory capacity against colony formation after the delivery of the compound, in different concentrations on an filter disk(4).
A modified technique of this assay was used in order to investigate the antiproliferative activity of candidate compounds. Tumoral cells from solid tumors and ascitic lines were plated separately in a two layer agar matrix. Cell lines to be tested were suspended in an upper layer of 0.4% Noble agar (Difco#00142-01) in RPMI-1066 (Gibco#3201875) at a yield varying between 10^4 to 2×10^5 cells per 60 mm Petri dish. Plating efficiency was determined for each line in order to achieve an optimal number of colonies per dish. Plates were examined before drug administration to confirm a uniform dispersion of single cells. The bottom layer consisted of 0.8% Noble agar, 0.8% Tryptic Soy Broth (difco#0037001)in CMRL-1066/Fischer's. The bottom layers were used within 2 and 9 days of preparation. Plated dishes (bottom layer of agar, upper layer of cells and administered drug were incubated in humidified atmosphere at 37° C., 5% CO2 for 10-20 days depending upon the time necessary to observe adequate colonies (defined as a cell aggregate of more than 50 cells) both control and drug inhibited. Drugs were administered on a paper filter disk (Whatman No. 1) of 6.5 mm diameter placed on the upper layer at 1/3 distance from the edge of the dish. The anti-clonogenic activity of the compounds was measured as the zone of inhibition from the disk edge to the most proximal colonies. This zone of inhibition was checked on an inverted microscope (40×) and was measured with a micrometer mounted in the eyepiece. The ocular micrometer was calibrated with a stage micrometer set for a particular combination of ocular and objective lenses.
200 units of activity are equivalent to 6.5 mm distance from the disk edge to the first colonies (5). […] We made a modification of the initial technique by not plating a solid tumor and a leukemia simultaneously in the same Petri dish. Anti-clonogenic tests performed on leukemia cell line have helped in the discovery of the majority of current clinically used cytostatic drugs. Our tests on solid tumor lines (animal or human) may help define active compounds with solid tumor specificity. This specific activity would be indicated by a higher level of cloning inhibition in solid tumors versus leukemias (6).

In a further series the test system is BE-1. In words: Soft agar colony formation disk diffusion assay. The class given is cell-based, human. Summed up:
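Anti-clonogenic effect assessed by disk diffusion in two-layer Noble agar, cells plated separately per line at an optimised density. After 10–20 days incubation, the inhibition zone around the compound disk was measured microscopically.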

In the next series the test system is Leukemia. In words: NCI assay, average per cancer type. To be noted: for CC50: 48 h, read-out: Average LOG10 LC50; for GI50: read-out: Average LOG10 GI50.
The subject of the next series is NSC Lung. In words: NCI assay, average per cancer type. The note with it: for CC50 / GI50: Homo sapiens; for CC50: 48 h, read-out: Average LOG10 LC50; for GI50: read-out: Average LOG10 GI50.
The next series relates to SC Lung. In words: NCI assay, average per cancer type. The note with it: for CC50 / GI50: Homo sapiens; for CC50: 48 h, read-out: Average LOG10 LC50; for GI50: read-out: Average LOG10 GI50.
For the next series, the system named is Colon. In words: NCI assay, average per cancer type. The note with it: for CC50 / GI50: Homo sapiens; for CC50: 48 h, read-out: Average LOG10 LC50; for GI50: read-out: Average LOG10 GI50.
The next series relates to CNS. In words: NCI assay, average per cancer type. The note with it: for CC50 / GI50: Homo sapiens; for CC50: 48 h, read-out: Average LOG10 LC50; for GI50: read-out: Average LOG10 GI50.
In the next series the test system is Melanoma. In words: NCI assay, average per cancer type. To be noted: for CC50 / GI50: Homo sapiens; for CC50: 48 h, read-out: Average LOG10 LC50; for GI50: read-out: Average LOG10 GI50.
In another series the test system is Renal. In words: NCI assay, average per cancer type. To be noted: for CC50 / GI50: Homo sapiens; for CC50: 48 h, read-out: Average LOG10 LC50; for GI50: read-out: Average LOG10 GI50.
The next series has as its system solid tumors. In words: NCI assay, mean potency in solid tumors. To be noted: for CC50 / GI50: Homo sapiens; for CC50: 48 h, read-out: Average LOG10 LC50, Mean Potency in solid tumors; for GI50: read-out: Average LOG10 GI50, Mean Potency in solid tumors.
In series [2] the test system is tumor cell lines. In words: NCI sulforhodamine B assay, all cell lines. The note with it: for CC50 / IC100 / GI50: Homo sapiens; for CC50 / IC100: 48 h; for CC50: read-out: Log10 LC50, Mean / MG-MID, all cell lines (converted); for IC100: read-out: Log10 TGI, Mean / MG-MID, all cell lines; for GI50: read-out: Log10 GI50, Mean / MG-MID, all cell lines (converted).
The test system of another series is Ovarian. The note with it: ovarian cancer cell lines, 48 h.

“Also recorded” adds a separate entry of the source. Like-named read-outs stand apart in the source and are kept apart here.

For “3-(2-acetoxy-1-propeneketal)aceto-6-acetoxy-1-hydroxy-1,2,3,4-tetrahydro-(2-oxygen)naphtacene-5,12-dione and 3-(2-acetoxy-1-propeneketal)-aceto-11-acetoxy-1-hydroxy-1,2,3,4-tetrahydro-(2-oxygen)naphtacene-5,12-dione [BCH-710]”, the “activity and specificity in words” value was “most active” in the series on tumor cell lines [1]; “specificity for the MATB/ADR rat breast ADR resistant adenocarcinoma and mouse ovarian reticulum cell sarcoma” with tumor cell lines [1] (listed as BCH 710).

Take `COC(=O)[C@H]1CC2=C(C(=O)c3c(cc4ccccc4c3O)C2=O)[C@H](O[C@H]2C[C@H](NC(=O)C(F)(F)F)[C@H](O)[C@H](C)O2)O1` (mixture of isomers) [BCH-692, (1'S,1S,3R) and (1'S,1R,3S) Methyl[11-hydroxy-1-(2',3',6'-trideoxy-3'-trifluoroacetamido-4'-hydroxy-L-lyxohexopyranose)-5,12-dioxo-3,4,5,12-tetrahydro-anthraceno[2,3-c]pyran-3-yl]formate]: the zone of inhibition in the series with BE-1 (10 μg/DISK) was 0 Zone Units; with BE-1 (100 μg/DISK) it was 100.0 ± 50.0 Zone Units. In the series with tumor cell lines [1], the “activity and specificity in words” value is listed as “most active; also recorded: Good broad spectrum activity”.

As to `CCOC(=O)C1CC2=C(CO1)C(=O)c1c(cc3ccccc3c1O)C2=O` (stereo not shown) [BCH-651, Ethyl(6 and 11 hydroxy-5,12-dioxo-3,4,5,12-tetrahydro-anthraceno[2,3-c]pyran-3-yl)]formate], the zone of inhibition is 0 Zone Units with BE-1 (10 μg/DISK) and 106.7 ± 21.5 Zone Units in the series with BE-1 (100 μg/DISK). The CC50 with Leukemia is > 100 µM; with NSC Lung, 50.1 µM; in the series on SC Lung, 61.7 µM; with Colon, 41.7 µM; in the series on CNS it was 64.6 µM; in the series on Melanoma, 34.7 µM. Further, the CC50 with Renal was 55 µM; with solid tumors, 50.1 µM; with tumor cell lines [2], 58.9 µM. The GI50 with Leukemia is 3.31 µM; with NSC Lung it was 7.76 µM; in the series on SC Lung, 2.75 µM; in the series with Colon, 3.39 µM; in the series on CNS it was 10 µM; in the series with Melanoma, 2.75 µM. The GI50 is 10 µM in the series on Renal, 5.25 µM in the series with solid tumors and 5.5 µM in the series with tumor cell lines [2]. Further, the “antiproliferative and cytotoxic activity in words” value with tumor cell lines [2] was “strong antiproliferative (GI50) and potent cytotoxic (LC50) activities”. In addition, the IC100 in the series with tumor cell lines [2] was 21.4 µM.

As to `CCOC(=O)C1CC2=C(CO1)C(=O)c1cc3ccccc3c(O)c1C2=O` (stereo not shown) [BCH-653, Ethyl(6 and 11 hydroxy-5,12-dioxo-3,4,5,12-tetrahydro-anthraceno[2,3-c]pyran-3-yl)]formate], the zone of inhibition with BE-1 (100 μg/DISK) was 76.2 ± 21.5 Zone Units. For the same compound, the CC50 in the series with Leukemia, in the series on NSC Lung, with SC Lung, in the series on Colon, in the series with CNS and in the series with Melanoma was > 100 µM throughout. The figures for the CC50 in the series on Renal, with solid tumors and in the series with tumor cell lines [2] were > 100 µM, > 100 µM and 100 µM, respectively. Besides, the GI50 in the series on Leukemia was 15.8 µM; in the series with NSC Lung, 44.7 µM; in the series with SC Lung, 28.8 µM; in the series with Colon, 35.5 µM; with CNS, 50.1 µM; with Melanoma, 33.1 µM. Further, the figures for the GI50 with Renal, with solid tumors and with tumor cell lines [2] were 57.5 µM, 39.8 µM and 42.7 µM, respectively. Further, the IC100 in the series with tumor cell lines [2] was 100 µM.

`CCOC(=O)[C@H]1CC2=C(C(=O)c3cc4ccccc4c(O)c3C2=O)[C@H](O[C@H]2C[C@H](NC(=O)C(F)(F)F)[C@H](O)[C@H](C)O2)O1` [BCH-684, (1'S,1S,3R)Ethyl[6-hydroxy-5,12-dioxo-1-(3'-trifluoroacetamido-1-daunosaminyl)-3,4,5,12-tetrahydroanthraceno(2,3-C)pyran-3-yl]formate]: in the series with tumor cell lines [1], the “activity and specificity in words” value is reported as “most active; also recorded: Good broad spectrum activity”.

On to `COC(=O)[C@@H]1CC2=C(C(=O)c3c(cc4ccccc4c3O)C2=O)[C@@H](O[C@H]2C[C@H](NC(=O)C(F)(F)F)[C@H](O)[C@H](C)O2)O1` [BCH-691, (1'S,1R,3S)-Methyl-{11-hydroxy-1-(2',3',6'-trideoxy-3'-trifluoroacetamido-4'-hydroxy-L-lyxoheoxpyranose)-5,12-dioxo-3,4,5,12-tetrahydroanthraceno[2,3-c]pyran-3-yl}formate], for which the zone of inhibition in the series on BE-1 (10 μg/DISK) is on record as 55.0 ± 10.0 Zone Units; in the series with BE-1 (100 μg/DISK), 155.5 ± 50.3 Zone Units. Moreover, the “activity and specificity in words” value in the series with tumor cell lines [1] was “most active; also recorded: Good broad spectrum activity”.

As to `CC(=O)Oc1c2c(c(O)c3ccccc13)C(=O)C1=C(C2=O)C(O)OC(C(C)=O)C1` (stereo not shown) [BCH-704, Methyl(11-acetoxy-1,6-dihydroxy-5,12-dioxo-3,4,5,12-tetrahydroanthraceno[2,3-c]pyran-3-yl)ketone], the “activity and specificity in words” value in the series with tumor cell lines [1] was “most active; also recorded: Specificity for breast cancer”.

In the case of “Methyl(11-hydroxy-5,12-dioxo-3,4,5,12-tetrahydroanthraceno[2,3-c]pyran-3-yl)ketone and Methyl(5-hydroxy-5,12-dioxo-3,4,5,12-tetrahydroanthraceno[2,3-c]pyran-3-yl)ketone [BCH-687]”, the zone of inhibition in the series on BE-1 (10 μg/DISK) stood at 85.0 ± 44.2 Zone Units; in the series on BE-1 (100 μg/DISK), 162.6 ± 70.4 Zone Units. For the same compound, the “activity and specificity in words” value in the series with tumor cell lines [1] is “most active; also recorded: responded well”. Also, in the series with Ovarian, the “Average LOG10 LC50” value was -4.15(± 0.11) log molar. The “Average LOG10 GI50” value in the series with Leukemia (Leukemia) is given as -4.91 ± 0.12 log molar; in the series on NSC Lung (NSC Lung), -4.81 ± 0.35 log molar; with SC Lung (SC Lung) it was -5.09 ± 0.25 log molar; in the series with Colon (Colon), -4.95 ± 0.28 log molar; with CNS (CNS) it was -4.59 ± 0.16 log molar; with Melanoma (Melanoma), -5.05 ± 0.27 log molar. Moreover, the “Average LOG10 GI50” value in the series with Renal (Renal) is -4.69 ± 0.23 log molar. In addition, the “Average LOG10 GI50, Mean Potency in solid tumors” value in the series on solid tumors (solid tumors) is -4.87 ± 0.17 log molar. The “antiproliferative and cytotoxic activity in words” value in the series with tumor cell lines [2] is “significant antiproliferative (GI50) and cytotoxic (LC50) activities in solid tumors”. Also, the “Log10 GI50, Mean / MG-MID” value in the series with tumor cell lines [2] (all cell lines) is recorded as -4.85 log molar. In addition, the “Log10 TGI, Mean / MG-MID” value with tumor cell lines [2] (all cell lines) is -4.37 log molar.

The values above are taken from patent publication US5593970A, “Heterocyclic anthracycline analogs” (priority 1994, dated 1997).
